Test results published in patent publication US9567319B2, “Compound having higher inhibitory activity on protein kinase G and preparation method thereof” (Jenkem Technology Co., Ltd., (Tianjin), priority 2014, dated 2017).
Entries after “also recorded” stand apart in the source; their conditions may differ.

System: hyperalgesia induced by Freund's complete adjuvant (CFA) in rats
Experiment: Therapeutic effect on CFA induced hyperalgesia in rats (overall conclusion of Von Frey and weight bearing tests)
Assay type: in vivo, SD rats
Conditions: for anti-hyperalgesia effect at high dose: high dose i.v.: JK-02H 20 mg/kg, 46 and JK-02A 40 mg/kg; for anti-hyperalgesia effect at high dose / anti-hyperalgesia effect at low dose: compared with vehicle; for anti-hyperalgesia effect at low dose: low dose i.v.: JK-02H 5 mg/kg, 46 and JK-02A 10 mg/kg
Protocol: . A repeat efficacy study was carried out on the same batch of animals with a single-dose treatment followed by a washing-out period. The 14 days in life studies included two stages: a single low dose treatment assessment on the 7th day and then a single high dose treatment test on the 14th day after CFA injection.
On the 7th day after CFA injection, the rats were randomly assigned to respective groups using a computer generated randomization procedure based on the body weight and the baseline values of Von Frey and weight bearing test. Animals received corresponding single dose treatments (vehicle and 3 test articles) on the 7th and 14th days after CFA injection, respectively, and the effect of the test compounds were evaluated. Hyperalgesia of all the study animals was assessed following a single low dose treatment with the test articles on day 7, while a single high dose effect of the test article was evaluated on day 14.
The mechanical hyperalgesia and weight bearing were measured on day 7 and day 14 after CFA injection, followed by administration of control or test articles. Von Frey filaments and weight bearing were measured on all the study animals at three time points on day 7, and four time points on day 14. An extra time point assessment was conducted on day 14, considering the strong analgesic effect of the test articles at a higher dose noticed during the test at the 3th time point.
The effects of compounds 46, JK-02A and JK-02H on CFA induced hyperalgesia in rats were assessed with Von Frey and weight bearing tests following single injection.

Row | Compound | therapeutic effect when the test time was prolonged to 5 h (high dose (20 mg/kg), 5 h post treatment) | anti-hyperalgesia effect at high dose (hydrochloride) | anti-hyperalgesia effect at low dose (hydrochloride) | anti-hyperalgesia effect at high dose | anti-hyperalgesia effect at low dose
1 | Cl.O=C(N[C@@H]1CNC[C@H]1NC(=O)c1ccc2cn[nH]c2c1)c1ccc(C(=O)c2c(OCCOCCO)ccc(F)c2F)cc1 [JK-02H, (3R,4R)-3-{4-[2,3-difluoro-6-(5-hydroxy-3-oxapentan-1-oxy)]benzoyl}benzamido-4-(1H-indazole-6-carboxamido)pyrrolidine hydrochloride] | very remarkable therapeutic effect | excellent anti-hyperalgesia effect; also recorded: significant anti-hyperalgesia effects | excellent anti-hyperalgesia effect; also recorded: significant anti-hyperalgesia effects | – | –
2 | CCCOc1ccc(O)c(F)c1C(=O)c1ccc(C(=O)N[C@@H]2CNC[C@H]2NC(=O)c2ccc3cn[nH]c3c2)cc1 [compound 46] | – | – | – | anti-hyperalgesia effect; also recorded: showed anti-hyperalgesia effects | barely showed any anti-hyperalgesia effect; also recorded: not significant
3 | CCCOc1ccc(F)c(F)c1C(=O)c1ccc(C(=O)N[C@@H]2CNC[C@H]2NC(=O)c2ccc3cn[nH]c3c2)cc1 [JK-02A] | – | – | – | showed anti-hyperalgesia effects | not significant
